In brackets after ≈: the same amount, converted by molar mass. Values belong to the molecule of their own block, whether it stands above or below them.
What was measured:
HeLa = experiment: Antiproliferative activity against human HeLa cells assessed as reduction in cell viability after 48 hrs by MTT assay; format: functional, cell-based
A549 [1] = experiment: Antiproliferative activity against human A549 cells assessed as reduction in cell viability after 48 hrs by MTT assay; format: functional, cell-based; conditions: A549, 48 h
HepG2 [2] = experiment: Antiproliferative activity against human HepG2 cells assessed as reduction in cell viability after 48 hrs by MTT assay; format: functional, cell-based; conditions: HepG2, 48 h
Tubulin = Tubulin (Bos taurus, UniProt Q6B856+Q862L2+Q862F3); experiment: Inhibition of bovine brain tubulin polymerization by spectrometric analysis
MCF7 [3] = experiment: Antiproliferative activity against human MCF7 cells assessed as reduction in cell viability after 48 hrs by MTT assay; format: functional, cell-based; conditions: MCF7, 48 h
Histone deacetylase 1 = Histone deacetylase 1 (Homo sapiens, UniProt Q13547)
Histone deacetylase 1, sequence (Q13547 whole entry): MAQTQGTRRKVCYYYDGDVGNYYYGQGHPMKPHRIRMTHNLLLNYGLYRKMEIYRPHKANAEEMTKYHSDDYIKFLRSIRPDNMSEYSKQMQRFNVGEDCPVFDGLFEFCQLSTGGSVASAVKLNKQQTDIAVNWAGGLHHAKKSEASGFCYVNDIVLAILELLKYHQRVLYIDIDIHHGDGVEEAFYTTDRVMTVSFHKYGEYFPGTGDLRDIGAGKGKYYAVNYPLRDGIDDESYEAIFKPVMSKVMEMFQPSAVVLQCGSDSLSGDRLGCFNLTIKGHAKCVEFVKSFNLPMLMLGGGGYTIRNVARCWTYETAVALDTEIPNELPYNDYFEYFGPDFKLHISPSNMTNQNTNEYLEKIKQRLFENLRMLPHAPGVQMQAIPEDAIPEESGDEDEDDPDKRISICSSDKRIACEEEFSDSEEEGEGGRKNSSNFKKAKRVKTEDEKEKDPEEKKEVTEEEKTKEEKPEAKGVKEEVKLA
Description: Inhibition of HDAC1 (unknown origin)

Histone deacetylase 3 = Histone deacetylase 3 (Homo sapiens, UniProt O15379); experiment: Inhibition of HDAC3 (unknown origin)
Histone deacetylase 3, sequence (O15379 whole entry): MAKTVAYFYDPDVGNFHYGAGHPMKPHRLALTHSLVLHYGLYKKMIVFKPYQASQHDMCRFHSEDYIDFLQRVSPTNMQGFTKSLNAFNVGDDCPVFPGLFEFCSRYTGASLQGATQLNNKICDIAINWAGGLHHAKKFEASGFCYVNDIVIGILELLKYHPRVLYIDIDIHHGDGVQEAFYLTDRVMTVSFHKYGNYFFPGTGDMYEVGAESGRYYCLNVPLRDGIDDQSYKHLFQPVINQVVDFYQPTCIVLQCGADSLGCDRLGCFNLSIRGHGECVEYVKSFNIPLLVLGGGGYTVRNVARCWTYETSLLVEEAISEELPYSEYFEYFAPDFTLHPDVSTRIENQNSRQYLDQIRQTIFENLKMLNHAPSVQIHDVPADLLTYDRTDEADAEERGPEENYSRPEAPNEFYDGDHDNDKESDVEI

[4] = biological target: Polyamine deacetylase HDAC10 (Homo sapiens, UniProt Q969S8); experiment: Inhibition of HDAC10 (unknown origin)
Polyamine deacetylase HDAC10, sequence (Q969S8 whole entry): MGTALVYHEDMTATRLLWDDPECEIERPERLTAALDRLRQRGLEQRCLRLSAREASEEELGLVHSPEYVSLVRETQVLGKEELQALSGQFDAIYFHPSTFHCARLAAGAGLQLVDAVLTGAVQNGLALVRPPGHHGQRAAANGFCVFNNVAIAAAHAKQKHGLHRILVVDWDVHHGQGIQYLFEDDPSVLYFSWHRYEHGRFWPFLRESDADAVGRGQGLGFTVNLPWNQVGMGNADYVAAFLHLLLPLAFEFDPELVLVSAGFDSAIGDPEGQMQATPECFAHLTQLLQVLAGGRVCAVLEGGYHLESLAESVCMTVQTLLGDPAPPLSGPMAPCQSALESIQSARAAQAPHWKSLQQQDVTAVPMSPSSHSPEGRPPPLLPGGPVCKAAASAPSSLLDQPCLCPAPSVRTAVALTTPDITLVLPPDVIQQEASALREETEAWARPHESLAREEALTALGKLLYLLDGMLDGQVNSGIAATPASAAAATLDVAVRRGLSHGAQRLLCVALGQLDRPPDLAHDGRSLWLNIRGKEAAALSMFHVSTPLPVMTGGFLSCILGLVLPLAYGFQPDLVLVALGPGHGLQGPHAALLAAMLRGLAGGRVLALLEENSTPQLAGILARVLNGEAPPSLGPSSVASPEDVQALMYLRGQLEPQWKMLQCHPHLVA

Histone deacetylase 2 = Histone deacetylase 2 (Homo sapiens, UniProt Q92769); experiment: Inhibition of HDAC2 (unknown origin)
Histone deacetylase 2, sequence (Q92769 whole entry): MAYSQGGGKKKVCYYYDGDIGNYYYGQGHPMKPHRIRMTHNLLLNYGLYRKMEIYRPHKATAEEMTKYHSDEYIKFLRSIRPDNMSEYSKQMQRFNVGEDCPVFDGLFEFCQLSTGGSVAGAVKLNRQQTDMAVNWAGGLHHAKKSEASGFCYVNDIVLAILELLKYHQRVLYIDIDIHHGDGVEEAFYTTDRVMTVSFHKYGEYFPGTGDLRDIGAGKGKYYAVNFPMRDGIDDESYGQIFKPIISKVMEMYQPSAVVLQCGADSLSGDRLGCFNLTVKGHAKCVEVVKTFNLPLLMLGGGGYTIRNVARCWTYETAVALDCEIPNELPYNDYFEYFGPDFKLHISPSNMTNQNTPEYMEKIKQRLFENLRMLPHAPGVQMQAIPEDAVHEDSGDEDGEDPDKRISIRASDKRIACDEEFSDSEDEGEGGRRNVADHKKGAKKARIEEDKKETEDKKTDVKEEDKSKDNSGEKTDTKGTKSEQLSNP

HepG2 [5] = experiment: Antiproliferative activity against human HepG2 cells assessed as reduction in cell viability by MTT assay; format: functional, cell-based
LoVo = experiment: Antiproliferative activity against human LoVo cells assessed as reduction in cell viability by MTT assay; format: functional, cell-based
K562 [6] = experiment: Antiproliferative activity against human K562 cells assessed as reduction in cell viability by MTT assay; format: functional, cell-based
HCT-116 = experiment: Antiproliferative activity against human HCT116 cells assessed as reduction in cell viability by MTT assay; format: functional, cell-based
[7] = biological target: Protein deacetylase HDAC6 (Homo sapiens, UniProt Q9UBN7); experiment: Inhibition of HDAC6 (unknown origin) by fluorescence based assay
Protein deacetylase HDAC6, sequence (Q9UBN7 whole entry): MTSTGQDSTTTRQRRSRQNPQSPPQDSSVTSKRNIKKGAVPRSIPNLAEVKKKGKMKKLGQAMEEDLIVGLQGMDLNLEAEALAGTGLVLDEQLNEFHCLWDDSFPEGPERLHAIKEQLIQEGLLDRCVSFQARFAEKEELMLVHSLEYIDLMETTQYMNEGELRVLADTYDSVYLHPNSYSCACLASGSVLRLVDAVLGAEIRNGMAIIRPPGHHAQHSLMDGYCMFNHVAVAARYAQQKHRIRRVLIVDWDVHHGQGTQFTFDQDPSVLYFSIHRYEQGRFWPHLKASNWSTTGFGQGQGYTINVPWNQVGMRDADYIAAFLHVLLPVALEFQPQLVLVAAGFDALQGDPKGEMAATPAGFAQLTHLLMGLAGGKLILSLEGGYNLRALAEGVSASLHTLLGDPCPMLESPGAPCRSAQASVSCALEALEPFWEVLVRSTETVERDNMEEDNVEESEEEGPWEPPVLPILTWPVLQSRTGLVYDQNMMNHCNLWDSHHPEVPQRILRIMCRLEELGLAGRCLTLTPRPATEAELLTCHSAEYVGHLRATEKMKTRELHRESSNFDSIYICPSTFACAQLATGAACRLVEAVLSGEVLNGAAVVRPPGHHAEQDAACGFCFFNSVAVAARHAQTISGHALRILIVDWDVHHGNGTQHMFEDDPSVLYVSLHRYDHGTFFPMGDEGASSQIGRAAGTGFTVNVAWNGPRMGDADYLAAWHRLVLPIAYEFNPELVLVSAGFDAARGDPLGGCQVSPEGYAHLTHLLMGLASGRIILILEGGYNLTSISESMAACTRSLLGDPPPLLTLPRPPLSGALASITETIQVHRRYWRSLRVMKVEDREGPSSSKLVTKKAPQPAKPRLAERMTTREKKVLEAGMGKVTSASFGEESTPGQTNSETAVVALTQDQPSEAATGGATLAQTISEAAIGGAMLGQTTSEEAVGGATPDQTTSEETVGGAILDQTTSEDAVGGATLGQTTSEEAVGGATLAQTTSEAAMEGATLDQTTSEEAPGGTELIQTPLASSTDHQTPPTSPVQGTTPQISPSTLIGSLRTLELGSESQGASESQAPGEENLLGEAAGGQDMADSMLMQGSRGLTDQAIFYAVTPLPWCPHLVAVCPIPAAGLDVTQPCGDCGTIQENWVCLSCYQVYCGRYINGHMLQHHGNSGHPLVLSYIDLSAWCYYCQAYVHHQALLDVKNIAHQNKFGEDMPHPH

Histone deacetylase 8 = Histone deacetylase 8 (Homo sapiens, UniProt Q9BY41); experiment: Inhibition of HDAC8 (unknown origin) by fluorescence based assay
Histone deacetylase 8, sequence (Q9BY41 whole entry): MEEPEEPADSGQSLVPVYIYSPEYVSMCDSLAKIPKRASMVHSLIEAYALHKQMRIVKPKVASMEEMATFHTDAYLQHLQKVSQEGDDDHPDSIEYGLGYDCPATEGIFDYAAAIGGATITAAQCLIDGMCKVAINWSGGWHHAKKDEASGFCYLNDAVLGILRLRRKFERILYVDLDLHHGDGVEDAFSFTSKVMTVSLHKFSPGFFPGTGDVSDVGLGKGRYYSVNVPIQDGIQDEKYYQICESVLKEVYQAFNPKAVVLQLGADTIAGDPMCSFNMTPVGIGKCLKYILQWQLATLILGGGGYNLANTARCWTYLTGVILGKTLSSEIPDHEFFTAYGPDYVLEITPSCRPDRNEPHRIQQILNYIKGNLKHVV

MCF7 [8] = experiment: Antiproliferative activity against human MCF7 cells assessed as reduction in cell viability by MTT assay; format: functional, cell-based
MOLT-3 = experiment: Antiproliferative activity against human MOLT3 cells assessed as reduction in cell viability after 3 days by MTT assay; format: functional, cell-based; conditions: MOLT-3, 72 h
HT-29 = experiment: Antiproliferative activity against human HT-29 cells assessed as reduction in cell viability after 48 hrs by MTT assay; format: functional, cell-based; conditions: HT-29, 48 h
[9] = biological target: Sigma non-opioid intracellular receptor 1 (Cavia porcellus, UniProt Q60492); experiment: Displacement of (+)-[3H]pentazocine from sigma1 receptor in guinea pig brain membranes; format: cell membranes
Sigma non-opioid intracellular receptor 1, sequence (Q60492 whole entry): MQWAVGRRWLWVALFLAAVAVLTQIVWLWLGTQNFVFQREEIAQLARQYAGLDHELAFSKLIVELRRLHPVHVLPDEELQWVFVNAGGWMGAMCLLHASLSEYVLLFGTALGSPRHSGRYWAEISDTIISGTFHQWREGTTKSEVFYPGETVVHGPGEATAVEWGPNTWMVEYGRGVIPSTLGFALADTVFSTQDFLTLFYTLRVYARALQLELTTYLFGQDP

[10] = Inhibition of bovine brain microtubule polymerization incubated for 60 mins by spectrophotometric method; design: species or system Bos taurus
A549 [11] = experiment: Antiproliferative activity against human A549 cells assessed as reduction in cell viability after 72 hrs by MTT assay; format: functional, cell-based; conditions: A549, 72 h
HuCC-A1 = experiment: Antiproliferative activity against human HuCCa1 cells assessed as reduction in cell viability after 3 days by MTT assay; format: functional, cell-based; conditions: HuCC-A1, 72 h
[12] = biological target: Induced myeloid leukemia cell differentiation protein Mcl-1 (Homo sapiens, UniProt Q07820); experiment: Inhibition of MCL1 (unknown origin)
Induced myeloid leukemia cell differentiation protein Mcl-1, sequence (Q07820 whole entry): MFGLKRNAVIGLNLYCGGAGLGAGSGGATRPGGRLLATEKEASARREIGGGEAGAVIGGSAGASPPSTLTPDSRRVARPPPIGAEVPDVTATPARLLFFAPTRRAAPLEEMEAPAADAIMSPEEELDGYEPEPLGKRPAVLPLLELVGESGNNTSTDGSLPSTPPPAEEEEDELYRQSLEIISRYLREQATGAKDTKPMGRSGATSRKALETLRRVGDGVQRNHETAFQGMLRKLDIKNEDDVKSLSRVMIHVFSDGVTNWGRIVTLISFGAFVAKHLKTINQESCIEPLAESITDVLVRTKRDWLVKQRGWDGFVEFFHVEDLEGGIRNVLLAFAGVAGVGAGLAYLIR

Aromatase = Aromatase (Homo sapiens, UniProt P11511); experiment: Inhibition of recombinant human CYP19 using MFC as substrate incubated for 30 mins in presence of NADPH by fluorescence based assay
Aromatase, sequence (P11511 whole entry): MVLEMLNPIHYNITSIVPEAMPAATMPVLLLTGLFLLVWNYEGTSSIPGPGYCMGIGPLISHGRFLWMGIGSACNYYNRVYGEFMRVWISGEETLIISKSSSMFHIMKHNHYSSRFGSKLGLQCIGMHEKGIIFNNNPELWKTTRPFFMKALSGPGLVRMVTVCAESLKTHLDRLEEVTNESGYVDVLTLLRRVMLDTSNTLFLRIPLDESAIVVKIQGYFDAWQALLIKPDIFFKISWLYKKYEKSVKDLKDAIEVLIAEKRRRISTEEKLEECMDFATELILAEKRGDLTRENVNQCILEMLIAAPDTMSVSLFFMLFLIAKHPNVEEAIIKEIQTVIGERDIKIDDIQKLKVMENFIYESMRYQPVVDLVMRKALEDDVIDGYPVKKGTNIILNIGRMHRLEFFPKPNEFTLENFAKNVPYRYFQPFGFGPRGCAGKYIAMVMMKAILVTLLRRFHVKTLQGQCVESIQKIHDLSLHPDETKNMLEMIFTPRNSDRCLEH

[13] = biological target: Bromodomain-containing protein 4 (Homo sapiens) (UniProt O60885); experiment: Inhibition of GST-tagged BRD4 bromodomain 1/2 (unknown origin) at 10 uM incubated for 3 hrs by fluorescence based assay relative to control
THP-1 = experiment: Growth inhibition of human THP1 cells incubated for 72 hrs by trypan blue assay; format: functional; conditions: THP-1, 72 h
[14] = biological target: Histone deacetylase 3/Nuclear receptor corepressor 2 (HDAC3/NCoR2) (Homo sapiens, UniProt O15379); experiment: Inhibition of recombinant human C-terminal GST/His-tagged HDAC3 (1 to 428 residues) co-expressed with human N-terminal GST-tagged NCOR2 (395 to 489 residues) in baculovirus infected Sf9 cells using Boc-Lys(Ac)-AMC as substrate preincubated for 15 mins followed by substrate addition and measured after 60 mins by fluorometric method
K562 [15] = experiment: Antiproliferative activity against human K562 cells assessed as reduction in cell viability after 72 hrs by MTT assay; format: functional, cell-based; conditions: K562, 72 h
HepG2 [16] = experiment: Antiproliferative activity against human HepG2 cells assessed as reduction in cell viability after 72 hrs by MTT assay; format: functional, cell-based; conditions: HepG2, 72 h

Compound: COc1ccc2[nH]cc(Cn3cc(COc4ccc(/C=C/C(=O)NO)cc4OC)nn3)c2c1
IC50 (HepG2 [5]): 3570 to 6210 nM
IC50 (LoVo): 3570 to 6210 nM
IC50 (K562 [6]): 3570 to 6210 nM
IC50 (HCT-116): 3570 to 6210 nM
IC50 [7]: 290 nM
IC50 (Histone deacetylase 8): 380 nM
IC50 (MCF7 [8]): 3570 to 6210 nM

Compound: O=[N+]([O-])c1ccc(S(=O)(=O)NCCc2c(C(c3ccccc3O)c3[nH]c4ccccc4c3CCNS(=O)(=O)c3ccc([N+](=O)[O-])cc3)[nH]c3ccccc23)cc1
IC50 (MOLT-3): 3.95 µg/mL (≈ 4.97 µM)

Compound: CN1CCN(c2ncc([N+](=O)[O-])c(Nc3c(C(=O)c4cccs4)[nH]c4cc(Cl)ccc34)n2)CC1
IC50 (A549 [1]): 14400 nM
IC50 (HT-29): 5560 nM

Compound: CC[C@]1(O)C[C@H]2CN(CCc3c([nH]c4ccccc34)[C@@](C(=O)OC)(c3cc4c(cc3OC)N(C=O)[C@H]3[C@@](O)(C(=O)OC)[C@H](OC(C)=O)[C@]5(CC)C=CCN6CC[C@]43[C@@H]65)C2)C1 [VINCRISTINE]
Ki [10]: 85 nM

Compound: Cc1cc(OCCCc2c(C(=O)NS(=O)(=O)c3ccc(C(=O)NCc4ccccc4)o3)[nH]c3c(-c4c(C)n[nH]c4C)c(Cl)ccc23)cc(C)c1Cl
Ki [12]: 2.4 nM

Compound: Cc1[nH]c2ccccc2c1/C=N\Nc1ccc(Cl)cc1
IC50 (Aromatase): 8720 nM

Compound: Cc1noc(C)c1-c1ccc2c(c1)c(Cc1ccc(F)cc1)cn2CCCCCCC(=O)NO
inhibition [13]: 88%
GI50 (THP-1): 7820 to 24200 nM
IC50 [14]: 5 nM

Compound: COc1cc(S(=O)(=O)/C=C/c2cccc3[nH]ccc23)cc(OC)c1OC
IC50 (A549 [11]): 305 nM
IC50 (K562 [15]): 55 nM
IC50 (HepG2 [16]): 75 nM

Continued, in another order:

IC50 (HeLa): 210 nM
IC50 (A549 [1]): 260 nM
IC50 (HepG2 [2]): 310 nM
IC50 (Tubulin): 2120 nM
IC50 (MCF7 [3]): 290 nM
Compound: COc1cc(C2=NN(C(N)=O)C(c3cn(C)c4ccc(Br)cc34)C2)cc(OC)c1OC (stereo unspecified)

IC50 (Histone deacetylase 1): 95 nM
IC50 (Histone deacetylase 3): 67 nM
IC50 [4]: 78 nM
IC50 (Histone deacetylase 2): 160 nM
Compound: Nc1ccc(F)cc1NC(=O)c1ccc(CNC(=O)/C=C/c2cccnc2)cc1

Ki [9]: 5.34 nM
Compound: COc1cc2c(cc1OC)CN(CCCCc1cn(-c3ccc(F)cc3)c3ccccc13)CC2

IC50 (A549 [11]): 8740 nM
Compound: O=S(=O)(NCCc1c(C(c2ccccc2O)c2[nH]c3ccccc3c2CCNS(=O)(=O)c2ccc(Cl)cc2)[nH]c2ccccc12)c1ccc(Cl)cc1
IC50 (HuCC-A1): 7750 nM

— ChEMBL document CHEMBL4342416, “Indole: A privileged scaffold for the design of anti-cancer agents” (Eur J Med Chem, 2019)
